Data: PMC9953224, “Pharmacokinetic Evaluation of New Drugs Using a Multi-Labelling Approach and PET Imaging: Application to a Drug Candidate with Potential Application in Neuromuscular Disorders” (Biomedicines, 2023)

Legend:
[1] = Pharmacokinetics from metabolite-corrected arterial plasma TACs after oral administration; format: in vivo, Sprague Dawley Rats
Procedure: (§1) Anaesthesia was induced with 5% isoflurane (IsoFlo®, Abbott Laboratories, Abbott Park, IL, USA) and maintained by 2% of isoflurane in 100% O2. During the experiment, rats were kept normothermic using a heating blanket (Homeothermic Blanket Control Unit; Bruker). The rat was positioned in supine position on an operating table and the two distal hind limbs were fixed forming an approximately 30° angle with the horizontal plane. The surgical region was scrubbed using Betadine, starting in the centre, and making a circular sweep outward. A skin incision was made in the femoral region. Soft tissue was dissected to expose the femoral neurovascular bundle, consisting of femoral vein, artery, and nerve. Fine tip forceps were placed between the artery, vein and nerve and were slowly opened to separate the vessels, exposing an approximately 1 cm length section of artery/vein. The vena profunda femoris was sutured to avoid retrograde bleeding via this vessel, and the sapheno-femoral junction was cauterized. A few millimetres from venatomy, a vascular clip was inserted in the direction of the catheter (to control the flow) and a suture was applied in the opposite direction (to avoid retrograde bleeding). The same operation was carried out both on the femoral vein and femoral artery. An appropriate syringe filled with 50 U/mL Heparin/physiologic saline solution was fixed at the terminus of the catheters and these were filled with heparinized saline solution. On the upper half of the vessel circumference, at a 45° angle, an incision was made and the catheter (fine bore polythene tubing: ID 0.58 mm, OD 0.98 mm) was inserted through the venotomy and advanced to the vascular clip. The vascular clip was then removed, and the catheter advanced distally towards the level of the inguinal ligament. The catheter was finally secured to the femoral vein/artery proximally and distally with 2 single knots using 4–0 braided silk suture. The catheters were connected to an in-house developed system composed by a peristaltic pump and gamma-radiation coincidence detector (Bioscan, B-FC-4100). The femoral artery catheter, the gamma detector, the peristaltic pump, and the femoral vein catheter were thus connected in series, to enable the extracorporeal circulation of blood (flow 150 μL/s from femoral artery to femoral vein) and continuous measurement of radioactivity in the blood (Figure 1).
(§2) The labelled compounds were administrated two different ways: (i) intravenous bolus infusion (ca. 37 MBq in 300 μL of saline solution was injected through the femoral vein catheter) and (ii) oral bolus administration. For oral administration, animals were fasted for 5 h. The radioactive dose (ca. 74 MBq in 300 μL of saline solution) was administered using flexible 20-gauge disposable flexible PTFE feeding needles (Fine Science Tools, F.S.T.) and a small animal Laryngoscope (Penn-Century, Model LS-2) for the correct visualization of the oesophagus. The study was conducted under no carrier added (NCA, dose adjusted to 1 μg/Kg) and carrier added (CA, dose adjusted to 5 mg/Kg) conditions. In all cases, data were imported in real time to an excel sheet using PLX-DAX add-on for Microsoft Excel (measured in volts per second).
(§3) Arterial blood samples (1 per animal) were withdrawn (see Figure 1) from the femoral artery catheter and introduced into a capillary (Microhaematocrit capillaries 75 × 1.55, Nahita). Samples were centrifuged at 11,000× g […] for 10 min and the haematocrit was determined. A second blood sample was withdrawn and the amount of radioactivity of a fixed volume (10 µL) was measured in an automatic gamma counter (2470 Wizard, PerkinElmer) to determine Cb (concentration of radioactivity in blood) and convert data imported with PLX-DAX (Volts per seconds) into Bq/s using a previously determined calibration curve. Values were then expressed as percentage of injected dose per gram of blood (% ID/g). […]

[2] = PET biodistribution after intravenous administration; format: in vivo, rats; conditions: 1 µg/Kg
Procedure: Rats were anesthetized by inhalation of 5% isoflurane (IsoFlo®, Abbott Laboratories, Abbott Park, IL, USA) in pure O2 and maintained by 1.5–2% isoflurane in 100% O2. During imaging, rats were kept normothermic using a heating blanket (Homeothermic Blanket Control Unit; Bruker). For intravenous administration, once the animal was under anaesthesia, one of the lateral tail veins was catheterized with a 24-gauge catheter (Introcan Certo®, Bbraun) and [^11C]AHK2.1 or [^11C]AHK2.2 was injected using saline solution as the vehicle (n = 3 for each radiolabelled compound, 26 ± 5 MBq; dose adjusted to 1 µg/Kg) concomitantly with the start of a PET dynamic acquisition. Whole body dynamic images were acquired in 4 bed positions (21 frames: 5 × 5 s per bed, 5 × 30 s per bed, 5 × 60 s per bed, 6 × 120 s per bed; total acquisition time = 79.6 min) in the 400–700 keV energetic window using an eXploreVista-CT small animal PET-CT system (GE Healthcare, Waukesha, WI, USA). After each PET scan, CT acquisitions were also performed (140 µA intensity, 40 kV voltage) to provide anatomical information of each animal as well as the attenuation map for the later reconstruction of the PET images. […] After reconstruction, PET-CT images of the same animal were co-registered and analysed using PMOD image processing tool (PMOD Technologies Ltd., Zürich, Switzerland). […]

[3] = Pharmacokinetics from metabolite-corrected arterial plasma TACs after intravenous administration; format: in vivo, Sprague Dawley Rats
Procedure: as §1, §2, §3

FKBP12 = biological target: T1, FKBP12 (Homo sapiens, UniProt P62942); assay: Competitive ligand binding assay (FKBP/FRB NanoBiT luminescence protein complementation) in HEK293 cells; format: cell-based; conditions: rapamycin 30 nM
T1 construct: host or cells: HEK293
T1 sequence (P62942 whole entry): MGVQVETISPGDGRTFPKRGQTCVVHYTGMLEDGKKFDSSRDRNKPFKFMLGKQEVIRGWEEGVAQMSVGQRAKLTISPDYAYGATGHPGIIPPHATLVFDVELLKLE
Procedure: Briefly, HEK293 (ATCC) cells were transfected with FKBP/FRB NanoBiT Control Pair (Promega, Madison, WI, USA) and kinetic measurements were performed 24 h after transfection with Nano-Glo Live Cell Reagent (Promega), as described by the manufacturer. A total of 30 nM rapamycin (Sigma-Aldrich, Madrid, Spain) and AHK2 (1 μM–10 mM) was sequentially added and each effect was recorded for 10 min. Specific activity was normalized to vehicle, and IC50 was calculated using GraphPad Prism by fitting the data to a four-parameter logistic curve.

Row | Hill function parameter d (initial level of parent fraction) [1] | Hill function parameter a (plateau of parent fraction in plasma) ([1]; 1 µg/Kg) | Hill function parameter a (plateau of parent fraction in plasma) ([1]; 5 mg/Kg) | Cp/Cb ratio (radioactivity in plasma / blood) ([3]; arterial blood, rat) | percentage of radioactivity in plasma ([3]; from Cp/Cb and haematocrit 0.44 ± 0.04) | Hill function parameter d (initial level of parent fraction) ([3]; intravenous) | Hill function parameter a (plateau of parent fraction in plasma) ([3]; intravenous, 1 µg/Kg) | Hill function parameter a (plateau of parent fraction in plasma) ([3]; intravenous, 5 mg/Kg) | induction of FKBP12/FRB dimerization (luminescence) (FKBP12) | SMILES | biodistribution of radioactivity in dynamic PET images [2]
1 | 1 | 0.10 | 0.13 | 1.44 ± 0.2 | ca. 81% | 1 | 0.075 | 0.29 |  | COc1ccc(SCc2cn(CCN(C)[11CH3])nn2)cc1 [[^11C]AHK2.1] | accumulation in the gastrointestinal tract, the kidneys and the bladder
2 |  |  |  |  |  |  |  |  |  | CN(C)CCn1cc(CSc2ccc(O[11CH3])cc2)nn1 [[^11C]AHK2.2] | rapid accumulation of radioactivity in the kidneys and elimination via urine
3 |  |  |  |  |  |  |  |  | induced | CO[C@H]1C[C@@H]2CC[C@@H](C)[C@@](O)(O2)C(=O)C(=O)N2CCCC[C@H]2C(=O)O[C@H]([C@H](C)C[C@@H]2CC[C@@H](O)[C@H](OC)C2)CC(=O)[C@H](C)/C=C(\C)[C@@H](O)[C@@H](OC)C(=O)[C@H](C)C[C@H](C)/C=C/C=C/C=C/1C [rapamycin, reference compound] | 
